Source: patent US7772383B2, “Chemical PCR: Compositions for enhancing polynucleotide amplification reactions” (The Trustees of Princeton University, priority 2002, dated 2010)

How the values were obtained:
[1] = tested on: 511 bp segment of human prostate-specific membrane antigen (PSM) cDNA; test: PCR amplification of PSM cDNA with diol additives, standard cycling; type: biochemical; conditions: PSM; for Specificity: best specificity (densitometric volume of target as percent of total volume) over the effective range; for Effective range: concentration interval over which densitometric volume of target is at least 50% of maximum; for Potency: normalized maximum densitometric volume of target band: 1,3-Butanediol = 1
Procedure: (§1) Amplification reactions were carried out under the following general conditions. Those skilled in the art will appreciate, however, that to the extent that the conditions (set forth in this application) required for specific experiments described in this example were inconsistent with the following general conditions, limited exceptions to the following general conditions were made The general conditions were as follows: 10 Mm Tris-HCl (Ph 8.8), 50 Mm KCl, 1.5 Mm MgCl2, 0.01% (w/v) gelatin, 0.2 Um primers, 0.06 ng/ul template, 0.2 Mm each Dntp, 0.04 U/ul Taq polymerase. The templates used were bovine brain N-WASP cDNA (1518 bp), a 996 bp segment of human myeloid leukocyte c-jun cDNA, a 511 bp segment of human prostate-specific membrane antigen (PSM) cDNA, and bovine brain glycolipid transfer protein (GTP) cDNA (660 bp). cDNA synthesis was carried out using the FIRST-STRAND® RT-PCR kit from Stratagene on the respective mRNAs purchased from Clontech. All amplification reactions for gene were carried out using a single master batch of cDNA. Taq polymerase and dNTPs were obtained from Stratagene. Primers were obtained from Genosys. Primer melting temperatures (Tms) were calculated using the Genosys oligo calculator program. The sequences of the primers were as follows.
(§2) Polymerase chain reactions for the N-WASP gene were conducted on a ROBOCYCLER® Gradient 40 thermal cycler from Stratagene using 100 ul solutions in 600 ul thin-walled tubes. For expediency, amplification of c-jun, PSM and GTP was carried out in a ROBOCYCLER® Gradient 96 thermal cycler from Stratagene using 50 ul solutions in 200 ul thin-walled tubes. Prior to Taq polymerase addition, a hotstart protocol was carried out that consisted of an initial cycle of 95° C. for 5 minutes (11) to ensure complete first-strand separation, followed by a cycle of 54° C. for 5 minutes. Amplifications were run for 30 cycles. […] Extension was done at 72° C. for periods depending on target length: 2 minutes for N-WASP, 1.5 minutes for c-jun and GTP, and 1 minute for PSM. Annealings were carried out either at fixed concentrations of additives using temperature gradients of 38-56° C. for N-WASP and 44-58° C. for the other targets, or at varying concentrations of additives using fixed temperatures of 41° C. for N-WASP, 50° C. for c-jun and PSM, and 54° C. for GTP.
(§3) Amplification products were analyzed by agarose gel electrophoresis on 0.8% agarose gels in which 20 ul reaction products were loaded with 4 ul loading buffer. Gels were stained with ethidium bromide, visualized on a UV transilluminator (Fisher), and documented by photography. Densitometric quantitation of amplification products was carried out using IMAGE SCANNER® and IMAGE MASTER® software from Amersham Pharmacia. Background correction was done using the software's rolling disc method.
With PSM, 1,2-propanediol, 1,2-butanediol, 1,3-butanediol, 1,4-butanediol and glycerol were tested; with c-jun, ethylene glycol and 1,3-propanediol were also tested in addition to these compounds. […] The following additive concentrations were tested using these annealing temperatures: 1,2-propanediol—0.5, 0.8, 1.1, 1.4, 1.7 and 2.0M; 1,2-butanediol—0.1, 0.3, 0.5, 0.6, 0.7 and 0.8M; 1,3-butanediol—0.1, 0.3, 0.5, 0.6, 0.9, 1.1, 1.2M; 1,4-butanediol—0.1 to 1.1M in 0.2M intervals; 1,5-pentanediol—0.1-0.6M in 0.1M intervals; glycerol—0.5 to 1.9M in 0.2M intervals, and 2.2M.

[2] = tested on: bovine brain glycolipid transfer protein (GTP) cDNA (660 bp); test: PCR amplification of GTP cDNA with diol additives, standard cycling; type: biochemical; conditions: for Potency / Effective range: GTP; for Potency: 95° C. denaturing, 72° C. extension, normalized maximum densitometric volume of target band: 1,5-Pentanediol = 1; for Effective range: concentration interval over which densitometric volume of target band is at least 50% of maximum volume
Procedure: as §1, §2, §3
Investigations into the PCR enhancing capabilities of diol cosolvents were carried out using GTP as the primary template. […] The standard protocol for annealing temperature and concentration gradient screening was again followed. […] These cosolvents were thus omitted from further studies. The optimal annealing temperatures for the remaining compounds were: ethylene glycol, 1,2-propanediol, 1,3-propanediol and cis-1,2-cyclopentanediol—58° C.; 1,2-butanediol—54° C.; 1,3-butanediol and 1,4-butanediol—[…]; 2,4-pentanediol, 1,5-pentanediol, 1,6-hexanediol and MPD—56° C.

CCC(O)CO (centres unmarked) [1,2-Butanediol]
Specificity [1]: 92%
Effective range [1]: 0.34 to 0.73 M
Potency [1]: 0.42
Potency [2]: 0.57
Effective range [2]: 0.08 to 0.62 M

OCCCCCO [1,5-Pentanediol]
Specificity [1]: 94%
Effective range [1]: 0.31 to 0.49 M
Potency [1]: 0.54
Potency [2]: 1.00
Effective range [2]: 0.16 to 0.47 M
GTP Potency ([2]; comparative standard 95/55/72° C., 0.3 M, best result under conventional conditions, normalization reference): 1.00
